Patent US20250186456A1, “PYRIMIDINE-FUSED CYCLIC COMPOUND AND PREPARATION METHOD AND USE THEREOF” (Genfleet Therapeutics (Shanghai) Inc., priority 2021, published 2025)
Like-named read-outs stand apart in the source and are kept apart here. One block for each molecule: values may come before it.

Experiments:
Type in all cases: cell-based, human
[1] = tested on: AsPC-1 cells (KRAS G12D mutation); experiment: Cell proliferation inhibition assay, 3D, CellTiter-Glo 3D, AsPC-1; details: AsPC-1 3D sphere model, 5 days incubation
Procedure, shortened: (§1)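 Spheroids (800 AsPC-1 or 400 AGS cells/well; RPMI-1640 or F-12K with 10% FBS) formed overnight, then were dosed on day 2 with a 3.16-fold series at 0.1% DMSO. After 5 days, viability was read by CellTiter-Glo 3D luminescence, and IC50 came from four-parameter fits of inhibition versus DMSO control and medium blank.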

[2] = tested on: AGS cells (KRAS G12D); experiment: Cell proliferation inhibition assay, 3D, CellTiter-Glo 3D, AGS; details: AGS 3D sphere model, 5 days incubation
Procedure, shortened: as §1

[3] = tested on: p-ERK in AGS cells (KRAS G12D mutation); experiment: Cell p-ERK assay (HTRF, Advance ERK phospho-T202/Y204 kit); details: AGS cells, 3 hours incubation with compound, HTRF, read-out: AGS p-ERK IC50
Procedure, shortened: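 Phospho-ERK (T202/Y204) measured by HTRF in lysates of human gastric AGS cells carrying KRAS G12D, after 3 h compound exposure at 0.1% DMSO over a 3.16-fold series. Percent inhibition relative to DMSO control and lysis-only blank; four-parameter curve fitting gave IC50.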

Molecule: CCc1cccc2c(F)c(N)cc(-c3nc4c5c(nc(OCC67CCCN6CC(F)(F)C7)nc5c3F)N3C[C@H]5CC[C@H](N5)[C@H]3[C@H](C)O4)c12 (stereo partly drawn) [Example Z729, 4-((5S,5aS,6S,9R)-12-((2,2-difluorotetrahydro-1H-pyrrolizin-7a (5H)-yl)methoxy)-1-fluoro-5-methyl-5a,6,7,8,9,10-hexahydro-5H-4-oxa-3,10a, 11, 13, 14-pentaaza-6,9-methanonaphtho[1,8-ab]heptalene-2-yl)-5-ethyl-1-fluoronaphthalen-2-amine]
IC50 ([1]; Homo sapiens, ASPC1, 120 h): 757 nM | IC50 ([2]; Homo sapiens, 120 h): 584 nM | IC50 ([3]; Homo sapiens): 212 nM

Molecule: C#Cc1c(F)ccc2cccc(-c3nc4c5c(nc(OCC67CC(=C)CN6CC(F)C7)nc5c3F)N3C[C@H]5CC[C@H](N5)[C@H]3[C@H](C)O4)c12 (stereo partly drawn) [Example Z607, (5S,5aS,6S,9R)-2-(8-ethynyl-7-fluoronaphthalen-1-yl)-1-fluoro-12-((2-fluoro-6-methylenetetrahydro-1H-pyrrolizin-7a (5H)-yl)methoxy)-5-methyl-5a,6,7,8,9,10-hexahydro-5H-4-oxa-3,10a,11,13,14-pentaaza-6,9-methanonaphtho[1,8-ab]heptalene]
IC50 ([1]; Homo sapiens, ASPC1, 120 h): 101 nM | IC50 ([2]; Homo sapiens, 120 h): 81.2 nM | IC50 ([3]; Homo sapiens): 24.4 nM

Molecule: C#Cc1cccc2cccc(-c3nc4c5c(nc(OCC67CC(=C)CN6CC(=C)C7)nc5c3F)N3C[C@H]5CC[C@H](N5)[C@H]3[C@H](C)O4)c12 [Example Z551, (58,5aS,6S,9R)-12-((2,6-dimethylenetetrahydro-1H-pyrrolizin-7a (5H)-yl)methoxy)-2-(8-ethynylnaphthalen-1-yl)-1-fluoro-5-methyl-5a,6,7,8,9,10-hexahydro-5H-4-oxa-3,10a,11,13,14-pentaaza-6,9-methanonaphtho[1,8-ab]heptalene]
IC50 ([1]; Homo sapiens, ASPC1, 120 h): 170 nM | IC50 ([2]; Homo sapiens, 120 h): 45.4 nM | IC50 ([3]; Homo sapiens): 61 nM

Molecule: C#Cc1c(F)ccc2cccc(-c3nc4c5c(nc(OCC67CC(=C)CN6CCC7=C)nc5c3F)N3C[C@H]5CC[C@H](N5)[C@H]3[C@H](C)O4)c12 (stereo partly drawn) [Example Z610, (5S,5aS,6S,9R)-12-((1,6-dimethylenetetrahydro-1H-pyrrolizin-7a (5H)-yl)methoxy)-2-(8-ethynyl-7-fluoronaphthalen-1-yl)-1-fluoro-5-methyl-5a,6,7,8,9,10-hexahydro-5H-4-oxa-3,10a, 11,13,14-pentaaza-6,9-methanonaphtho[1,8-ab]heptalene]
IC50 ([1]; Homo sapiens, ASPC1, 120 h): 42.3 nM | IC50 ([2]; Homo sapiens, 120 h): 18.6 nM | IC50 ([3]; Homo sapiens): 17.2 nM

Molecule: C#Cc1cccc2cc(N)cc(-c3nc4c5c(nc(OCC6(CN(C)CC(F)(F)F)CC6)nc5c3F)N3C[C@H]5CC[C@H](N5)[C@H]3[C@H](C)O4)c12 [Example Z714, 5-Ethynyl-4-((5S,5aS,6S,9R)-1-Fluoro-5-Methyl-12-((1-((Methyl(2,2,2-Trifluoroethyl)Amino)Methyl)Cyclopropyl)Methoxy)-5a,6,7,8,9,10-Hexahydro-5H-4-Oxa-3,10a,11,13,14-Pentaaza-6,9-Methanonaphtho[1,8-Ab]Heptalen-2-Yl) Naphthalen-2-Amine]
IC50 ([1]; Homo sapiens, ASPC1, 120 h): 815 nM | IC50 ([2]; Homo sapiens, 120 h): 673 nM | IC50 ([3]; Homo sapiens): 622 nM

Molecule: C#Cc1c(F)ccc2cccc(-c3nc4c5c(nc(OCC67CC(=C)CN6C[C@@H](OC)C7)nc5c3F)N3C[C@H]5CC[C@H](N5)[C@H]3[C@H](C)O4)c12 (stereo partly drawn) [Example Z692, (5S,5aS,6S,9R)-2-(8-ethynyl-7-fluoronaphthalen-1-yl)-1-fluoro-12-(((2S)-2-methoxy-6-methylenetetrahydro-1H-pyrrolizin-7a (5H)-yl)methoxy)-5-methyl-5a,6,7,8,9,10-hexahydro-5H-4-oxa-3,10a,11,13,14-pentaaza-6,9-methanonaphtho[1,8-ab]heptalene]
IC50 ([1]; Homo sapiens, ASPC1, 120 h): 290 nM | IC50 ([2]; Homo sapiens, 120 h): 378 nM | IC50 ([3]; Homo sapiens): 188 nM

Molecule: C#Cc1c(F)ccc2cccc(-c3nc4c5c(nc(OCC67C[C@@H](OC)CN6CCC7=C)nc5c3F)N3C[C@H]5CC[C@H](N5)[C@H]3[C@H](C)O4)c12 (stereo partly drawn) [Example Z688, (5S,5aS,6S,9R)-2-(8-Ethynyl-7-Fluoronaphthalen-1-Yl)-1-Fluoro-12-(((6R)-6-Methoxy-1-Methylenetetrahydro-1H-Pyrrolizin-7a (5H)-Yl)Methoxy)-5-Methyl-5a,6,7,8,9,10-Hexahydro-5H-4-Oxa-3,10a,11,13,14-Pentaaza-6,9-Methanonaphtho[1,8-Ab]Heptalene]
IC50 ([1]; Homo sapiens, ASPC1, 120 h): 39.2 nM | IC50 ([2]; Homo sapiens, 120 h): 20 nM | IC50 ([3]; Homo sapiens): 8.77 nM

Molecule: C#Cc1cccc2cc(N)cc(-c3nc4c5c(nc(OCC6(CN7CCOCC7)CC6)nc5c3F)N3C[C@H]5CC[C@H](N5)[C@H]3[C@H](C)O4)c12 [Example Z700, 5-Ethynyl-4-((5S,5aS,6S,9R)-1-Fluoro-5-Methyl-12-((1-(Morpholinomethyl)Cyclopropyl)Methoxy)-5a,6,7,8,9,10-Hexahydro-5H-4-Oxa-3,10a, 11,13,14-Pentaaza-6,9-Methanonaphtho[1,8-Ab]Heptalen-2-Yl) Naphthalen-2-Amine]
IC50 ([1]; Homo sapiens, ASPC1, 120 h): 2.14 nM | IC50 ([2]; Homo sapiens, 120 h): 1.91 nM | IC50 ([3]; Homo sapiens): 0.39 nM

Molecule: C#Cc1c(F)ccc2cc(O)cc(-c3nc4c5c(nc(OC[C@@]67CCCN6C[C@H](F)C7)nc5c3F)N3C[C@H]5CC[C@H](N5)[C@H]3[C@H](C)O4)c12 [Example Z552, 5-ethynyl-6-fluoro-4-((5S,5aS,6S,9R)-1-fluoro-12-(((2R,7aS)-2-fluorotetrahydro-1H-pyrrolizin-7a (5H)-yl)methoxy)-5-methyl-5a,6,7,8,9,10-hexahydro-5H-4-oxa-3,10a,11,13,14-pentaaza-6,9-methanonaphtho[1,8-ab]heptalen-2-yl) naphthalen-2-ol]
IC50 ([1]; Homo sapiens, ASPC1, 120 h): 5.77 nM | IC50 ([2]; Homo sapiens, 120 h): 0.53 nM | IC50 ([3]; Homo sapiens): 0.67 nM

IC50 [1]: 694 nM | IC50 [2]: 598 nM | IC50 [3]: 72.6 nM
Molecule: C#Cc1c(F)ccc2cccc(-c3nc4c5c(nc(OC[C@@]67CC(=C)CN6CC[C@@H]7OC)nc5c3F)N3C[C@H]5CC[C@H](N5)[C@H]3[C@H](C)O4)c12 (single isomer, unassigned) [Example Z696]

Molecule: C#Cc1c(F)ccc2cccc(-c3nc4c5c(nc(OC[C@]67C[C@@H](F)CN6CCC7=C)nc5c3F)N3C[C@H]5CC[C@H](N5)[C@H]3[C@H](C)O4)c12 (single isomer, unassigned) [Example Z689]
IC50 ([1]; Homo sapiens, ASPC1, 120 h): 17.4 nM | IC50 ([2]; Homo sapiens, 120 h): 19.3 nM | IC50 ([3]; Homo sapiens): 6.61 nM

Molecule: C#Cc1cccc2cccc(-c3nc4c5c(nc(OCC67CCCN6CC(=C)C7)nc5c3F)N3C[C@H]5CC[C@H](N5)[C@H]3[C@H](CC)O4)c12 (stereo partly drawn) [Example Z595, (5S,5aS,6S,9R)-5-ethyl-2-(8-ethynylnaphthalen-1-yl)-1-fluoro-12-((2-methylenetetrahydro-1H-pyrrolizin-7a (5H)-yl)methoxy)-5a,6,7,8,9,10-hexahydro-5H-4-oxa-3,10a,11,13,14-pentaaza-6,9-methanonaphtho[1,8-ab]heptalene]
IC50 ([1]; Homo sapiens, ASPC1, 120 h): 157 nM | IC50 ([2]; Homo sapiens, 120 h): 99 nM | IC50 ([3]; Homo sapiens): 119 nM

Molecule: C#Cc1cccc2cccc(-c3nc4c5c(nc(OC[C@]67CCCN6CCC7=C)nc5c3F)N3C[C@H]5CC[C@H](N5)[C@H]3[C@H](C)O4)c12 [Example Z677, (5S,5aS,6S,9R)-2-(8-ethynylnaphthalen-1-yl)-1-fluoro-5-methyl-12-(((R)-1-methylenetetrahydro-1H-pyrrolizin-7a (5H)-yl)methoxy)-5a,6,7,8,9,10-hexahydro-5H-4-oxa-3,10a,11,13,14-pentaaza-6,9-methanonaphtho[1,8-ab]heptalene]
IC50 ([1]; Homo sapiens, ASPC1, 120 h): 981 nM | IC50 ([2]; Homo sapiens, 120 h): 795 nM | IC50 ([3]; Homo sapiens): 185 nM

Molecule: C#Cc1c(F)ccc2cccc(-c3nc4c5c(nc(OCC67CC(=C)CN6CCC7CO)nc5c3F)N3C[C@H]5CC[C@H](N5)[C@H]3[C@H](C)O4)c12 (stereo partly drawn) [Example Z683, (7a-((((5S,5aS,6S,9R)-2-(8-ethynyl-7-fluoronaphthalen-1-yl)-1-fluoro-5-methyl-5a,6,7,8,9,10-hexahydro-5H-4-oxa-3,10a,11,13,14-pentaaza-6,9-methanonaphtho[1,8-ab]heptalen-12-yl)oxy)methyl)-6-methylenehexahydro-1H-pyrrolizin-1-yl)methanol]
IC50 ([1]; Homo sapiens, ASPC1, 120 h): 79 nM | IC50 ([2]; Homo sapiens, 120 h): 22.7 nM | IC50 ([3]; Homo sapiens): 5.84 nM

Molecule: C#Cc1c(F)ccc2cccc(-c3nc4c5c(nc(OCC67CCCN6CCC7=C(F)F)nc5c3F)N3C[C@H]5CC[C@H](N5)[C@H]3[C@H](C)O4)c12 (stereo partly drawn) [Example Z612, (5S,5aS,6S,9R)-12-((1-(difluoromethylene)tetrahydro-1H-pyrrolizin-7a (5H)-yl)methoxy)-2-(8-ethynyl-7-fluoronaphthalen-1-yl)-1-fluoro-5-methyl-5a,6,7,8,9,10-hexahydro-5H-4-oxa-3,10a, 11,13,14-pentaaza-6,9-methanonaphtho[1,8-ab]heptalene]
IC50 ([1]; Homo sapiens, ASPC1, 120 h): 124 nM | IC50 ([2]; Homo sapiens, 120 h): 65.4 nM | IC50 ([3]; Homo sapiens): 99.3 nM

Molecule: C#Cc1c(F)ccc2cccc(-c3nc4c5c(nc(OCC6(CN7CCOCC7)CC6)nc5c3F)N3C[C@H]5CC[C@H](N5)[C@H]3[C@H](C)O4)c12 [Example Z693, (58,5aS,6S,9R)-2-(8-ethynyl-7-fluoronaphthalen-1-yl)-1-fluoro-5-methyl-12-((1-(morpholinomethyl)cyclopropyl)methoxy)-5a,6,7,8,9,10-hexahydro-5H-4-oxa-3,10a, 11, 13,14-pentaaza-6,9-methanonaphtho[1,8-ab]heptalene]
IC50 ([1]; Homo sapiens, ASPC1, 120 h): 31.1 nM | IC50 ([2]; Homo sapiens, 120 h): 27.3 nM | IC50 ([3]; Homo sapiens): 9.23 nM

Molecule: 5-ethynyl-3-fluoro-4-((58,5aS,6S,9R)-1-fluoro-S-methyl-12-((1-(morpholinomethyl)cyclopropyl)methoxy)-5a,6,7,8,9,10-hexahydro-5H-4-oxa-3,10a, 11, 13,14-pentaaza-6,9-methanonaphtho[1,8-ab]heptalene-2-yl) naphthalen-2-amine [Example Z707]
IC50 [1]: 5.24 nM | IC50 [2]: 7.44 nM | IC50 [3]: 0.95 nM
